According to patent US10344330B2, “Glatiramer acetate response biomarker mRNA potency assay” (Mylan Inc., priority 2013, dated 2019):
“And” between values parts separate entries of the source, which are not always exact repeats. Equal values may be shown once.

B1: MBP: myelin basic protein, a negative control (protein, UniProt P02686 1-304, looked up)
Myelin basic protein: MGNHAGKRELNAEKASTNSETNRGESEKKRNLGELSRTTSEDNEVFGEADANQNNGTSSQDTAVTDSKRTADPKNAWQDAHPADPGSRPHLIRLFSRDAPGREDNTFKDRPSESDELQTIQEDSAATSESLDVMASQKRPSQRHGSKYLATASTMDHARHGFLPRHRDTGILDSIGRFFGGDRGAPKRGSGKDSHHPARTAHYGSLPQKSHGRTQDENPVVHFFKNIVTPRTPPPSQGKGRGLSLSRFSWGAEGQRPGFGYGGRASDYKSAHKGFKGVDAQGTLSKIFKLGGRDSRSGSPMARR

Legend:
[1] = system: mIL-2 mRNA in primary LN cells; assay: mIL-2 mRNA by real-time PCR in ex vivo stimulated LN cells of immunized (SJL/J×BALB/C)F1 mice (Example I); format: cell-based, mouse
Procedure: For each of the three experiments summarized in Table 1, female (SJL/J×BALB/C) F1 hybrid (Jackson Laboratory) mice were immunized by footpad injection with either 250 μg GMA (Mylan Pharmaceuticals, Inc.) and CFA (Sigma Aldrich), or Mannitol and CFA (as a negative control). The GA solution was diluted to 5 mg/mL with Dulbecco's Phosphate-buffered saline. A dose solution was then prepared by mixing the diluted GA solution (5 mg/mL) and CFA (1:1) until well-emulsified. Each mouse received a total injection volume of 0.1 mL (250 μg GA). Animals were immunized on Day 0. Immunized animals were sacrificed via cervical dislocation on Day 10 following immunization. Lymph nodes in the axillary and popliteal regions were removed aseptically in a purifier clean bench, and transferred into a sterile petri dish containing about 5 mL of sterile RPMI 1640 medium. The LN were washed 3 times with −5 mL of RPMI medium, and the LN cells isolated by pressing the LN with a syringe plunger. The cell suspension was transferred to a sterile 50 mL conical tube, washed in about 40 mL of RPMI medium by centrifuging at about 200×g for 10 minutes at about 4° C., and re-suspended in RPMI 1640 medium for cell counting. The cell suspension was centrifuged at about 200×g for 10 minutes at about 4° C. and re-suspended in ice cold enriched DCCM-1 medium. The LN cells (2.5×10^6 cells/cm^2) were plated in the wells of a 48-well tissue culture plate and stimulated with GA or controls.
After incubation at about 37° C. in a humidified CO2 incubator for the indicated time, total RNA was isolated from the treated cells using the RNeasy Mini Kit (Qiagen, Cat. #74104). Cells were lysed in RNA lysis buffer, transferred to Qiagen spin columns, washed, and the RNA eluted with DEPC-treated water from the column. cDNA was synthesized from each RNA sample using the High Capacity cDNA Reverse Transcription Kit (Applied Biosystems, Cat. #4368814). The PCR reactions were carried out using TaqMan Universal PCR Master Mix (Applied Biosystems, Cat. #4304437) and specific primers/probe for the target cytokine and reference internal controls. Primers/probes for mouse cytokines IL-2 (Cat. #4331182; ID Mm00434256_m1), IL-4 (Cat. #4331182; ID Mm00445259_m1), IL-5 (Cat. #4331182; ID Mm00439646_m1), IFN-γ (Cat. #4331182; ID Mm01168134_m1), IL-10 (ID Mm00439614_m1), and TNF-α (Mm00443260_g1) were obtained from Life Technologies. Expression of cytokine mRNA was quantitatively analyzed using a Real-Time PCR system (7500, Applied Biosystems).
(DCCM1 from Beit Haemek Ltd.; Cat. No. 05 010 1A). There was no MBP treatment for the 2-hour groups. (MBP from Bachem; Cat No. H-1964.0001) For each evaluation time DCCM1 was studied and compared, i.e. 2 hours represents 2 hours with DCCM1, 4 hours=4 hours, etc., and served as representative control for each timepoint.
For Experiment 3, a 96-well plate format was used, and RNA isolation was carried out using an SV 96 Total RNA Isolation System (Promega). Immunization of Groups 3A and 4A are described in Table 1. […] Y-axis: linear mRNA fold-changes of mIL-2. X-axis: log Cop and GA (Mylan GMA) concentration values. The best fit for the data set was performed using the logarithmic model.
Group 1B animals were female (SJL/J×BALB/C) F1 hybrid (Jackson Laboratory) mice immunized by footpad injection with either 250 μg GA and CFA, or Mannitol and CFA (as a negative control). A dose solution was prepared by mixing a diluted GA solution (5 mg/mL) and CFA (1:1).

[2] = system: TNF-α secreted by LN cells; assay: TNF-α secretion by GA-stimulated LN cells, MSD 9-plex ELISA (Example II); format: cell-based, mouse; details: for TNF-α secretion response ratio (treated cell medium to control DCCM1 medium): 21 hr
Procedure: Animals at 8 weeks of age were immunized by injection into four footpads using a 1 mL syringe with a 27-G, 1⁄2-inch needle. […] Ten days post-immunization, immunized animals were sacrificed via cervical dislocation. […] The LN cells were isolated by pressing the LN with the plunger end of a sterile syringe. […] Trypan blue exclusion method was used to determine the cell density of viable cells in the suspension. […] Cat. […] LN cells were plated into a 24-well tissue culture plate for drug stimulation. […] Cell debris was removed by centrifugation at ca. 200×g for 10 minutes at 4° C. Cytokines secreted by treated cells were determined on the day of collection by ELISA using mouse TH 1/TH 2 9-Plex Tissue Culture Kit (Meso Scale Discovery; Cat No. […]-2, Lot #: K0032839) which detects Th1 cytokines (IFN-γ, IL-2, IL-12, IL-1β, TNF-α, CXCL1) and Th2 cytokines (IL-4, IL-5 and IL-10). For IFN-γ, culture media also were assayed at 45 hours using mouse IFN-γ Tissue Culture Kit (Meso Scale Discovery; Cat No. […] For the positive control, 0.5 mL of LN cells (5×10^6 cells/well) were treated with 0.5 mL of ConA (5 μg/mL). For the negative control, 0.5 mL of LN cells (5×10^6 cells/well) were treated with 0.5 mL of MBP (20 μg/mL). The LN cells with mock stimulation (enriched DCCM1 medium) were used to monitor the background level of a cytokine. For the cytokine assays, calibration standards or samples were incubated in the MULTI-SPOT or the SINGLE-SPOT plate and each cytokine bound to its corresponding capture antibody. All test samples were run in duplicate. The amount of each cytokine on its distinct spot was quantified using a cytokine-specific detection antibody labeled with MSD SULFO-TAGTM reagent. Electrochemiluminescent signals from immobilized SULFO-TAGTM-labeled complexes on each spot from each well were captured by the MSD SECTOR Imager 6000, which produces a signal directly proportional to the amount of captured cytokine in a test sample. The levels of cytokines in test samples were derived by interpolation from calibration curves with calibration standards of known concentrations using reagents provided with the MSD kits. Kits were used according to the manufacturer's protocols. […] Data are expressed as a response ratio of cytokine concentration in treated cell medium to control DCCM1 medium.

[3] = Experiment 1, GA-immunized (SJL/J×BALB/C)F1, 2 hour post stimulation, GA 10, ConA 2.5 μg/mL
[4] = Experiment 1, GA-immunized (SJL/J×BALB/C)F1, 4 hour post stimulation, GA 10, MBP 10, ConA 2.5 μg/mL
[5] = Experiment 1, GA-immunized (SJL/J×BALB/C)F1, 6 hour post stimulation, GA 10, MBP 10, ConA 2.5 μg/mL
[6] = Experiment 1, GA-immunized (SJL/J×BALB/C)F1, 24 hour post stimulation, GA 10, MBP 10, ConA 2.5 μg/mL
[7] = Experiment 3, Group 3A (GA + CFA), stimulation 2.5 μg/mL, 6 hours
[8] = Experiment 3, Group 3A (GA + CFA), stimulation 10 μg/mL, 6 hours
[9] = Group 1B (GA + CFA), 4 hours post-stimulation, GA 10, MBP 10, ConA 2.5 μg/mL, reference 18S rRNA
[10] = Group 1B (GA + CFA), 6 hours post-stimulation, GA 10, MBP 10, ConA 2.5 μg/mL, reference 18S rRNA
[11] = Group 2B (Mannitol + CFA), 4 hours post-stimulation, GA 10, MBP 10, ConA 2.5 μg/mL, reference 18S rRNA
[12] = Group 2B (Mannitol + CFA), 6 hours post-stimulation, GA 10, MBP 10, ConA 2.5 μg/mL, reference 18S rRNA
[13] = Experiment 3, Group 4A controls, *Animals not immunized, MBP 10, ConA 2.5 μg/mL, 6 hours
[14] = BALB/cByJ, immunized GA Intraplantar
[15] = BALB/cByJ, immunized GA Lower Limb
[16] = BALB/cByJ, immunized Mannitol Intraplantar
[17] = C57BL10J, immunized GA Intraplantar
[18] = C57BL10J, immunized GA Lower Limb
[19] = C57BL10J, immunized Mannitol Intraplantar
[20] = CD-1, immunized GA Intraplantar
[21] = CD-1, immunized Mannitol Intraplantar

Row | Molecule | mIL-2 mRNA Level [1, 3] [fold change vs control] | mIL-2 mRNA Level [1, 4] [fold change vs control] | mIL-2 mRNA Level [1, 5] [fold change vs control] | mIL-2 mRNA Level [1, 6] [fold change vs control] | mIL-2 mRNA Level [1, 7] [fold change vs control] | mIL-2 mRNA Level [1, 8] [fold change vs control] | mIL-2 mRNA Level [1, 9] [fold change vs control] | mIL-2 mRNA Level [1, 10] [fold change vs control] | mIL-2 mRNA Level [1, 11] [fold change vs control] | mIL-2 mRNA Level [1, 12] [fold change vs control] | mIL-2 mRNA Level [1, 13] [fold change vs control] | TNF-α secretion response ratio (treated cell medium to control DCCM1 medium) [2, 14] | TNF-α secretion response ratio (treated cell medium to control DCCM1 medium) [2, 15] | TNF-α secretion response ratio (treated cell medium to control DCCM1 medium) [2, 16] | TNF-α secretion response ratio (treated cell medium to control DCCM1 medium) [2, 17] | TNF-α secretion response ratio (treated cell medium to control DCCM1 medium) [2, 18] | TNF-α secretion response ratio (treated cell medium to control DCCM1 medium) [2, 19] | TNF-α secretion response ratio (treated cell medium to control DCCM1 medium) [2, 20] | TNF-α secretion response ratio (treated cell medium to control DCCM1 medium) ([2]; CD-1, immunized GA Lower Limb) | TNF-α secretion response ratio (treated cell medium to control DCCM1 medium) [2, 21] | also measured
1 | L-glutamic acid polymer with L-alanine, L-lysine and L-tyrosine, acetate (salt) [GA] | 5.3 | 12.2 | 20.8 | 3.6 | 20.2 | 26.1 | 16.7 | 10.2 | 1.8 | 1.4 |  |  |  |  |  |  |  |  |  |  | mIL-2 mRNA Level ([1]; Experiment 3, Group 3A (GA + CFA), stimulation 1 μg/mL, 6 hours): 9.7 fold change vs control; mIL-2 mRNA Level ([1]; Experiment 3, Group 3A (GA + CFA), stimulation 5 μg/mL, 6 hours): 22.6 fold change vs control; mIL-2 mRNA Level ([1]; Experiment 3, Group 3A (GA + CFA), stimulation 15 μg/mL, 6 hours): 27.3 fold change vs control; mIL-2 mRNA Level ([1]; Experiment 3, Group 3A (GA + CFA), stimulation 25 μg/mL, 6 hours): 34.7 fold change vs control; mIL-2 mRNA Level ([1]; Experiment 3, Group 4A (Mannitol + CFA), stimulation 5 μg/mL, 6 hours): 3.0 fold change vs control; mIL-2 mRNA Level ([1]; Experiment 3, Group 4A (Mannitol + CFA), stimulation 10 μg/mL, 6 hours): 1.6 fold change vs control; mIL-2 mRNA Level ([1]; Experiment 3, Group 4A (Mannitol + CFA), stimulation 25 μg/mL, 6 hours): 1.7 fold change vs control and 1.5 fold change vs control; mIL-2 mRNA level increase vs DCCM-1-stimulated control ([1]; Group 1B, 4 and 6 hours (text summary of Table 8)): at least 10 fold; TNF-α secretion, dose response to GA (in words) ([2]; cells from any of the three mouse strains): No dose response
2 | Concanavalin A [ConA, reference compound] | 183.4 | 131.5 | 105.0 | 16.2 | 111.0 |  | 256.3 | 54.3 | 517.9 | 277.9 | 91.4 | 27.69 | 10.87 | 11.61 | 2.53 | 2.02 | 2.10 | 17.59 | 9.79 | 23.88 | 
3 | B1 |  | 1.0 | 0.3 | 0.6 |  | 0.9 | 0.5 | 0.3 | 0.4 | 0.5 | 1.5 | 0.98 | 1.07 | 1.10 | 1.03 | 1.04 | 1.01 | 1.34 | 1.54 | 1.51 | 
